One data set in a line: Solubility in water. Format: physicochemical.
In data set [1] the test system is 1411HP germ cell tumor xenografts. The data set can be described thus: Nude mouse xenograft model of resistant 1411HP. In kind it is in vivo. To be noted: for intra-tumoral hemorrhage (vascular disrupting effect): after 24 h. Here is the method: In vivo antitumor activity and tolerability of compounds 5b and 6b of the invention were studied in a nude mouse xenograft model of the resistant germ cell tumor cell line 1411HP employing Athymic Nude-Fox n1 nu/nu mice (Harlan und Winkelmann, Borchen, Germany).
The tests were carried out as follows. The mice were kept under pathogen-free conditions, fed on an autoclaved standard diet and given free access to sterilized water. Each of five mice were administered a 150 μL phosphate buffered saline suspension of 10 million 1411HP cells into the left flank to generate subcutaneous xenograft tumors. After 4 weeks one group of two mice bearing 1411HP xenografts with a volume of ca. 1 cm^3 were injected i.p. with a single dose of 30 mg/kg body weight of 5b or 6b, respectively. Two mice in the second group with xenografts of a volume of ca. 2.5 cm^3 were injected i.p. with 20 mg/kg body weight of 5b on two consecutive days. Tumor volumes were calculated by caliper measurement using the formula a^2×b×0.5 with a being the short and b the long dimension. Body weight was assessed twice weekly and daily while under therapy.

The subject of data set [2] is HT-29 colon carcinoma cells. The experiment in a line: MTT cell growth inhibition, HT-29. Format: cell-based, human. The settings on record: for IC50 concentration: combretastatin A-4 resistant HT-29 cells; for cytotoxicity (comparison): multi-drug resistant HT-29 colon cancer cells. Here is the method: (§1) The effects of the compounds 5b, 6b, 8a, and 8e according to the present invention and of the reference compound 25f (Wang et al., J. Med. Chem. 2002, 45, 1697-1711) on cells of the following human tumor cell lines were evaluated: 518A2 melanoma, HL-60 leukemia, HT-29 colon carcinoma, KB-V1/Vbl cervical carcinoma, and MCF-7/Topo breast carcinoma.
(§2) The HL-60 cells were obtained from the German Collection of Biological Material (DSMZ), Braunschweig, Germany; the human 518A2 melanoma cells as well as the testicular germ cell tumor cell lines H12.1 and 1411HP were cultured in the department of oncology and hematology, Medical Faculty of the Martin-Luther University, Halle, Germany; the KBV1/Vbl and the MCF-7/Topo cells were obtained from the Institute of Pharmacy of the University Regensburg, Germany; and the colon HT-29 cells from the University Hospital Erlangen, Germany. The HL-60 and the HT-29 cells were grown in RPMI-1640 medium supplemented with 10% fetal calf serum (FCS), 100 IU/mL penicillin G, 100 μg/mL streptomycin sulfate, 0.25 μg/mL amphotericin B and 250 μg/mL gentamycine (all from Gibco, Egenstein, Germany). The 518A2 and the KB-V1/Vbl cells were cultured in Dulbecco's Modified Eagle Medium (D-MEM, Gibco) containing 10% FCS, 100 IU/mL penicillin G, 100 μg/mL streptomycin sulfate, 0.25 μg/mL amphotericin B and 250 μg/mL gentamycine. The MCF-7/Topo cells were grown in E-MEM medium (Sigma) supplemented with 2.2 g/L NaHCO3, 110 mg/L sodium pyruvate and 5% FCS. The cells were maintained in a moisture-saturated atmosphere (5% CO2) at 37° C. in 75-mL culture flasks (Nunc, Wiesbaden, Germany). They were serially passaged following trypsinisation by 0.05% trypsin/0.02% EDTA (PAA laboratories, Clbe, Germany). Mycoplasma contamination was routinely monitored, and only mycoplasma-free cultures were used.
(§3) MTT [3-(4,5-dimethylthiazol-2-yl)-2,5-diphenyltetrazolium bromide](ABCR) was used to identify viable cells which reduce it to a violet formazan (Mosmann, J. Immunol. Methods 1983, 65, 55-63). HL-60 leukemia cells (5×10^5/mL), and cells (5×10^4/mL) of 518A2 melanoma, HT-29 colon, KB-V1/Vbl cervix and MCF-7/Topo breast carcinoma were seeded out in 96-well tissue culture plates and cultured for 24 h. Incubation (5% CO2, 95% humidity, 37° C.) of the cells following treatment with the test compounds was continued for 24, 48 or 72 h. Blank and solvent controls were treated identically. MTT in phosphate buffered saline (5 mg/mL) was added to a final concentration of 0.05% (HL-60, 518A2) or 0.1% (HT-29, KB-V1/Vbl, MCF-7/Topo). After 2 h the formazan precipitate was dissolved in 10% sodium dodecylsulfate in DMSO containing 0.6% acetic acid in the case of the HL-60 cells. For the adherent 518A2, KB-V1/Vbl, MCF-7/Topo and HT-29 cells the microplates were swiftly turned to discard the medium before adding the solvent mixture. The microplates were gently shaken in the dark for 30 min and absorbance at 570 nm and 630 nm (background) was measured with an ELISA plate reader. All experiments were carried out in quadruplicate; the percentage of viable cells was calculated as the mean±SD with controls set to 100%.

Data set [3] concerns MCF-7/Topo breast carcinoma cells. The experiment in a line: MTT cell growth inhibition, MCF-7/Topo. To be noted: MCF-7/Topo (BCRP+). Format: cell-based, human. Here is the method: as §1, §2
as §3, with “MTT in phosphate buffered saline (5 mg/mL) was added to a final concentration of 0.05% (HL-60, 518A2) or 0.1% (HT-29, KB-V1/Vbl, MCF-7/Topo). After 2 h the formazan precipitate was dissolved in 10% sodium dodecylsulfate in DMSO containing 0.6% acetic acid in the case of the HL-60 cells. For the adherent 518A2, KB-V1/Vbl, MCF-7/Topo and HT-29 cells the microplates were swiftly turned to discard the medium before adding the solvent mixture.” left out

Data set [4] deals with vascular system of a fertilized chicken embryo. The data set can be described thus: CAM assay. The settings on record: 10 nmol applied on the embryonal vessels; up to three days. Format: in vivo. Here is the method: Compounds of the present invention were tested for anti-angiogenic and vasculature disrupting properties using the CAM assay. In this test the vascular system of a fertilized chicken embryo is used as a model (Wilting et al., Anat. Embryol. 1991, 183, 259-271).
Fertilized chicken eggs received from a nearby farm directly after laying have been incubated at a temperature of 36-38° C. and a relative humidity of 60%. During the growth the eggs have been held in an inclined position and turned from time to time in order to avoid an adherence to the shell. After four days each embryo was transferred into a cavity created by fixing a thin plastic foil on top of a cup and covered. This was done by opening the shell at the flat end where the air sac resides and letting the content slip out. There the growth continued for another 2-4 days until the first blood vessels became visible. Then 10 nmol of the substance to be tested (in 10 μL PBS with 1% DMF) have been applied directly on the embryonal vessels. As a reference PBS was used. Finally incubation continued for up to another three days (Dugan et al., Anat. Rec. 1991, 229, 125-128; Fisher, Tested studies for laboratory teaching 1993, 5, 105-115).

Where [5] appears, read: dual-dose i.p. 20 mg/kg on two consecutive days.
[6] abbreviates: single dose 30 mg/kg i.p., xenografts ca. 1 cm3.

“Also recorded” adds a separate entry of the source. Some results are limits rather than exact numbers.

In general, solubility refers to how much of the substance goes into solution per volume. In the data set “Solubility in water”, `COc1ccc(-c2c(-c3cc(Br)c(OC)c(OC)c3)ncn2C)cc1N` [compound 6b, 1-methyl-5-(3-amino-4-methoxyphenyl)-4-(3-bromo-4,5-dimethoxyphenyl)-imidazole] displayed a solubility of over 10000 µg/mL. In data set [1] (1411HP xenograft model), the vascular disrupting effect entry is given as “vascular disrupting activity; also recorded: vascular disrupting in tumor xenografts”. Moreover, the tumor response result in data set [1] (setting [5]) is “high antitumor activity to a similar extent as compound 5b”. The tolerability entry in data set [1] (single dose 30 mg/kg i.p.) was “tolerated this treatment very well”. Moreover, in data set [1] (setting [6]), the “intra-tumoral hemorrhage (vascular disrupting effect)” value is “strong intra-tumoral hemorrhage”; the tumor response result was “transient swelling of the tumors, eventually followed by regression and slow regrowth”. Besides, in data set [2], the IC50 concentration result was “single-digit nanomolar range” and the “cytotoxicity (comparison)” value is “able to overcome the drug resistance in these cancer cells in vitro”. For the same compound, the “cytotoxicity / efficacy (comparison)” value in data set [3] is “noticeably less active but still superior to the known imidazole 25f”. Further, in data set [4], the “effect on embryonal blood vessels” value is on record as “leaving regular vasculature in chicken embryos (CAM assay) alone”.

For the compound `COc1ccc(-c2c(-c3cc(Cl)c(OC)c(OC)c3)ncn2C)cc1N` [compound 5b, 1-methyl-5-(3-amino-4-methoxyphenyl)-4-(3-chloro-4,5-dimethoxyphenyl)-imidazole], the solubility in the data set “Solubility in water” was over 10000 µg/mL. Further, the tumor response entry in data set [1] (setting [5]) was “dramatic tumor regressions, leading even to a stabilization in one case”. In addition, the tolerability entry in data set [1] (single dose 30 mg/kg i.p.) is recorded as “tolerated this treatment very well”. In data set [1] (setting [6]), the “intra-tumoral hemorrhage (vascular disrupting effect)” value was “strong intra-tumoral hemorrhage”; the tumor response entry is “transient swelling of the tumors, eventually followed by regression and slow regrowth”. Also, in data set [1] (single dose application), the “duration of tumor volume stabilization” value is listed as “stabilize the tumor volume for about two weeks”. The “tolerability of repeated applications” value in data set [1] (third course of double dose 20 mg/kg i.p.) is reported as “well tolerated”. Further, in data set [1] (three double doses of 20 mg/kg i.p. (further on days 16/17 and 35/36)), the “tumor response to repeated applications” value was “regressions and prolonged periods of stabilization following each of the three applications”. In data set [2], the IC50 concentration result is given as “single-digit nanomolar range” and the “cytotoxicity (comparison)” value is given as “able to overcome the drug resistance in these cancer cells in vitro”. Also, the “cytotoxicity / efficacy (comparison)” value in data set [3] is given as “noticeably less active but still superior to the known imidazole 25f”. For the same compound, the “effect on embryonal blood vessels” value in data set [4] is “dramatic vessel shrinkage within 24 h after treatment and to a complete degradation of the vascular system within three days”.

The values above are taken from US8980933B2, “Combretastatin analogs for use in the treatment of cancer” (Universitat Bayreuth, priority 2010, dated 2015).
